Measurements published in patent US6855801B1, “Peptides modulating activities of heparin other glycosaminoglycans or proteoglycans” (Thomas Jefferson University, priority 1999, dated 2005).
Several values for one entry are separate records, joined by “and”; a condition that tells them apart may be missing. Equal entries are not always repeated. Where two headings read alike, the source gives them in different places.

What was measured:
[1] = Affinity coelectrophoresis (ACE) of radiolabeled heparin through peptides; type: binding, pig; conditions: for heparin-binding affinity in words: ACE, low Mr heparin
Source text: Preparation of Radiolabeled Heparin—Whole heparin from pig intestinal mucosa (Sigma) was tyramine end-labeled and radiolabeled with Na^125I (Amersham, Pharmacia Biotech, Inc., Piscataway, N.J.) to an average specific activity ≅1.0×10^7 CPM/μg as described^59. Radiolabeled heparin was fractionated on Sephadex G-100 (Bio-Rad Laboratories, Hercules, Calif.) and the final ≅12% of material to elute was retained as the low Mr material of ≦6,000 (Jordan, R., D. Beeler, and R. Rosenberg, J Biol Chem, 254:2902-2913, 1979; Laurent, T. C., et al., Biochem J, 175:691-701, 1978).
(§1) Briefly, peptides were dissolved in 1×ACE running buffer, 50 mM sodium 3-(N-morpholino)-2-hydroxypropanesulfonate (MOPSO, Sigma)/125 mM sodium acetate, pH 7.0, and serially diluted in running buffer at 2× concentrations. Peptides were then mixed 1:1 with 2% agarose/1% CHAPS, 3-[(3-cholamidopropyl)dimethylammonio]-1-propanesulfonate, (Boehringer Mannheim, Indianapolis, Ind.), and loaded into wells of a 1% agarose gel. Radiolabeled heparin or HUVEC PGs were then loaded in a slot on the […] side of the gel, and electrophoresed through the peptide-containing wells, towards the cathode. Gels were dried and PG mobility was measured with a Phosphorimager (Molecular Dynamics, Sunnyvale, Calif.) by scanning each protein lane and determining the relative radioactivity content per. 88-μm pixel through the length of the lane. Retardation coefficient (R) measurements, binding isotherm curve fittings, and apparent Kd value determinations were calculated as detailed previously (Lee, M. K., and A. D. Lander, Proc Nat Acad Sci USA, 88:2768-2772, 1991; San Antonio, J. D., et al, Biochem, 32:47464755, 1993).
Some peptides were also analyzed by ACE for heparin-binding under reducing conditions. Thus, after serial peptide dilution, β-mercaptoethanol (β-ME) was added at 5% to each peptide sample, and these were mixed 1:1 with 2% agarose/1% CHAPS/5% β-ME, and added to the ACE gel sample wells as usual.

Orgaran = experiment: Reversal of anti-Factor Xa activity in vitro (Stachrom Heparin chromogenic assay), Orgaran; type: biochemical, human; conditions: for Percent Reversal of anti-Factor Xa Activity, Orgaran: 0.5 U/ml anti-Factor Xa activity
Procedure: (§2) Solutions of Lovenox, Orgaran, or unfractionated heparin (Sigma) were prepared in 0.32% sodium citrate or in normal human plasma to contain 0.5 U/ml anti-FXa activity. Calibrations were made against the standards provided by the Stachrom Heparin (Diagnostica Stago) assay kit. The heparin/ATIII complex was allowed to form at 37° C. for 2 minutes, peptide was added, the mixture was incubated for an additional 1-5 minutes, and then Factor Xa was added, and finally the color reagent, for one minute, and the absorbance was read at 405 nm. The increase in absorbance from the heparinized control to the test sample was divided by the difference in A405 between the heparinized control and the control without heparin to obtain the % reversal.

Lovenox = experiment: Reversal of anti-Factor Xa activity in vitro (Stachrom Heparin chromogenic assay), Lovenox; type: biochemical, human; conditions: for Percent Reversal of anti-Factor Xa Activity, Lovenox: 0.5 U/ml anti-Factor Xa activity
Procedure: as §2

unfractionated heparin [2] = experiment: Reversal of anti-Factor Xa activity in vitro (Stachrom Heparin chromogenic assay), unfractionated heparin; type: biochemical, human; conditions: for Percent Reversal of anti-Factor Xa Activity, Heparin (unfractionated): 0.5 U/ml anti-Factor Xa activity
Procedure: as §2

HUVEC PGs = experiment: ACE of HUVEC PGs/GAGs through peptide; type: binding, human
Procedure: as §1
Binding analysis of peptides to enzymatically or chemically degraded PGs (see below) was carried out by ACE as detailed, except that PG samples included 6 M urea to denature any residual enzymes.
Cell Culture—HUVEC were isolated as detailed elsewhere (Gimbrone, M. A., In Progress in Hematology and Thrombosis. Vol. III. B. S. Collen, editor. W B Saunders, Philadelphia. 1-28, 1976) and were used up to passage seven. Cells were cultured on 0.2% gelatin-coated tissue culture flasks in normal culture media composed of medium 199 (Gibco BRL, Gaithersburg, Md.), 10% fetal bovine serum (FBS, Mediatech Inc.), 80 μg/ml endothelial cell growth supplement isolated from bovine hypothalami as described (Maciag, T., et al., Proc Nat Acad Sci USA, 76 (11):5674-5678, 1979), 50 μg/ml heparin (porcine intestinal mucosa, grade 1A, Sigma) 1% penicillin-streptomycin, and 0.1% fungizone.
Radiolabeling and Isolation of Total HUVEC PGs and GAGs—Exponentially growing, subconfluent HUVEC were labeled with 35μCi/ml ^35S-Na2SO4 (ICN Pharmaceuticals, Costa Mesa, Calif.) in normal culture media minus heparin for 12 h. Culture media and cell layers were harvested separately. After removal of the media, cells were washed with 2.0 ml PBS plus Ca^2+-Mg^2′. Media and rinses were pooled and brought to 6 M urea, 10 mM EDTA, 1 mM phenymethylsulfonyl fluoride (PMSF), 5 mM N-ethylmaleimide (NEM), 50 mM 6-aminocaproic acid, 5 mM benzamidine, and 1 μg/ml pepstatin A. Samples were stirred for 15 min at room temperature, then centrifuged at 10,000 rpm for 30 min to remove insoluble materials.
To the cell layer was added 2.0 ml of extraction solution, 6M urea, 100 mM NaCl, 0.2% Triton X-100, 50 mM Tris-HCl, pH 7.0, and protease inhibitors as described above. Cells were scraped off the dishes, and the extracts were pooled and stirred for 5 min at room temperature, and then centrifuged as described above.
Samples were concentrated on DEAE columns (DEAE Bio-Gel A Agarose, Bio-Rad Laboratories) equilibrated with low salt buffer, 0.1 M NaCl, 6 M urea, and 50 mM Tris-HCl, pH 7.0. Columns were rinsed with 10 ml of low salt buffer; flow through was discarded. Bound PGs/GAGs were eluted with 3 ml of high salt buffer, 1.5 M NaCl, 6 M urea, and 50 mM Tris-HCl, pH 7.0. Eluted samples were dialyzed against distilled water, lyophilized and stored at −20° C. until binding analysis.
Enzymatic Digestions of PGs—The contributions of PG GAG chain components to peptide binding affinities were assessed by selective enzymatic degradation of GAG chains prior to ACE analysis. ^35S-Na2SO4 labeled HUVEC PGs were digested with chondroitinase ABC, or heparatinase I (Seikagaku America, Ijamsville, Md.). […]

unfractionated heparin [3] = experiment: Reversal of anti-thrombin effects of unfractionated heparin in vitro (thrombin clotting time in plasma); type: biochemical, human; conditions: heparin 0.5 U/ml; thrombin standardized to clotting time 20-22 seconds
Procedure: Plasma was obtained from normal donors. Thrombin concentration (human alpha thrombin, Enzyme Research Laboratories, South Bend, Ind.) was standardized to produce a clotting time of 20-22 seconds. Heparin was added at 0.5 IU anti-thrombin activity/ml. The clotting time for heparin alone was approximately 3 minutes. To test the effects of the peptides in this system, one minute after addition of heparin to the plasma, the peptides were added in concentrations ranging from 1-200 μg/ml. After one minute, thrombin was added and the clotting time determined. The effects of the peptides were concentration dependent. The clotting time was restored to normal values in all samples at the dosages shown below in Table III. The ability of the peptides to neutralize heparin inhibition of thrombin clotting time was consistent with the binding affinities shown in Table I, and with the effectiveness against low molecular weight heparin anti-Factor Xa activity in Table II.

Row | Substance | heparin-binding affinity in words [1] | Percent Reversal of anti-Factor Xa Activity, Orgaran (Orgaran; peptide 0.6 mg/ml in plasma) [%] | Percent Reversal of anti-Factor Xa Activity, Lovenox (Lovenox; peptide 0.6 mg/ml in plasma) [%] | Percent Reversal of anti-Factor Xa Activity, Heparin (unfractionated) (unfractionated heparin [2]; peptide 0.6 mg/ml in plasma) [%] | further results
1 | AKKARAAKKARAAKKARAAKKARAAKKARA [(AKKARA)5, XBBXBX tandem repeat peptide] | strong |  |  |  | 
2 | ARKKAAKAARKKPAKAARKKAAKA |  | 67.0 | 83.0 | 57.5 | 
3 | (ARKKAAKA)4 (ARKKAAKAARKKAAKAARKKAAKAARKKAAKA; protein fragment) [XBBBXXBX tandem repeat peptide] |  | 70.5 | 73 | 87.5 | Kd (HUVEC PGs; 35S-labeled secreted/total EC PGs, read-out: Kd for total (secreted) HUVEC PGs): ~300 nM; Kd for HUVEC PGs devoid of CS GAGs via chondroitinase ABC (ABC) digestion (HUVEC PGs; chondroitinase ABC digested PGs): comparable affinity; Kd (HUVEC PGs; chondroitinase ABC digested PGs, read-out: Kd for HUVEC PGs devoid of CS GAGs via chondroitinase ABC (ABC) digestion): ~300 nM; Kd (HUVEC PGs; free GAG chains of total PGs, read-out: Kd for GAG chains liberated from core protein by borohydride reduction (BH)): ~1200 nM; reduction in affinity after borohydride release of GAG chains (HUVEC PGs; free GAG chains versus intact PGs): 3 fold and 3-4 fold; Kd for HUVEC PGs devoid of HS GAGs via heparatinase I digestion (H) (HUVEC PGs; heparatinase I digested PGs): comparable affinity; Kd (HUVEC PGs; heparatinase I digested PGs, read-out: Kd for HUVEC PGs devoid of HS GAGs via heparatinase I digestion (H)): ~300 nM; Kd for HUVEC PGs devoid of HS GAGs via nitrous acid treatment (NA) (HUVEC PGs; nitrous acid degraded PGs): comparable affinity; Kd (HUVEC PGs; nitrous acid degraded PGs, read-out: Kd for HUVEC PGs devoid of HS GAGs via nitrous acid treatment (NA)): ~300 nM
4 | (ARRRAARA)3 [XBBBXXBX tandem repeat peptide] |  | 67.0 | 67.5 | 57.5 | 
5 | YPARRARYQWVRAKP [murine serglycin, cysteine replaced with alanine] | negligible | 2.0 | 0 | 25.0 | 
6 | (ARKKPAKA)3 (ARKKPAKAARKKPAKAARKKPAKA; protein fragment) [proline in each tandem repeat in place of an alanine] |  | 66.5 | 100 | 99.0 | Percent Reversal of anti-Factor Xa Activity, Orgaran (Orgaran; peptide 0.12 mg/ml in plasma): 45.0%; Percent Reversal of anti-Factor Xa Activity, Orgaran (Orgaran; peptide 0.4 mg/ml in plasma): 67.5%; Percent Reversal of anti-Factor Xa Activity, Lovenox (Lovenox; peptide 0.12 mg/ml in plasma): 62.0%; Percent Reversal of anti-Factor Xa Activity, Lovenox (Lovenox; peptide 0.4 mg/ml in plasma): 62.5%; Percent Reversal of anti-Factor Xa Activity, Heparin (unfractionated) (unfractionated heparin [2]; peptide 0.12 mg/ml in plasma): 90.0%; Percent Reversal of anti-Factor Xa Activity, Heparin (unfractionated) (unfractionated heparin [2]; peptide 0.4 mg/ml in plasma): 50.0%
7 | ARKKAAKA | do not bind heparin with a measurable affinity |  |  |  | 
8 | AAARRARAAAARAKA |  |  |  |  | decrease in heparin-binding affinity versus native mouse SG peptide ([1]; modified sequence versus YPARRARYQWVRCKP): 350 fold
9 | AKKARA | do not bind heparin with a measurable affinity |  |  |  | 
10 | YPTQRARYQWVRCNP |  | 5 | 0 | 90 | effectiveness against Orgaran in vitro, in words (Orgaran; text summary of Table II): highly effective; μg peptide/ml heparinized plasma needed to normalize thrombin time (unfractionated heparin [3]): 100 μg peptide/ml heparinized plasma; effectiveness against Lovenox / low molecular weight heparin in vitro, in words (Lovenox; text summary of Table II): not against Lovenox; effectiveness against UFH / heparin in vitro, in words (unfractionated heparin [2]; text summary of Table II): highly effective
11 | (ARKKAAKA)5 (ARKKAAKAARKKAAKAARKKAAKAARKKAAKAARKKAAKA; protein fragment) [XBBBXXBX tandem repeat peptide] |  | 83.0 | 81.5 | 94.5 | Percent Reversal of anti-Factor Xa Activity, Orgaran (Orgaran; peptide 0.12 mg/ml in plasma): 75.0%; Percent Reversal of anti-Factor Xa Activity, Orgaran (Orgaran; peptide 0.4 mg/ml in plasma): 75.0%; μg peptide/ml heparinized plasma needed to normalize thrombin time (unfractionated heparin [3]): 21 μg peptide/ml heparinized plasma; Percent Reversal of anti-Factor Xa Activity, Lovenox (Lovenox; peptide 0.12 mg/ml in plasma): 68.5%; Percent Reversal of anti-Factor Xa Activity, Lovenox (Lovenox; peptide 0.4 mg/ml in plasma): 71.0%; Percent Reversal of anti-Factor Xa Activity, Heparin (unfractionated) (unfractionated heparin [2]; peptide 0.12 mg/ml in plasma): 64.5%; Percent Reversal of anti-Factor Xa Activity, Heparin (unfractionated) (unfractionated heparin [2]; peptide 0.4 mg/ml in plasma): 93.0%
12 | (AKAAKKRA)3 (AKAAKKRAAKAAKKRAAKAAKKRA; protein fragment) [XBBBXXBX tandem repeat peptide, reversed orientation] |  | 72.0 | 93.5 | 94.0 | μg peptide/ml heparinized plasma needed to normalize thrombin time (unfractionated heparin [3]): >50 μg peptide/ml heparinized plasma
